ChEMBL document CHEMBL5620415, “Design, synthesis and anti-hepatic fibrosis activity of novel diphenyl vitamin D receptor agonists” (Eur J Med Chem, 2023)
Active and inactive are the calls of the source.

Experiments:
[1] = target: T1, Vitamin D3 receptor (Homo sapiens) (UniProt P11473); test: Agonist activity at Vitamin D receptor in human LX-2 cells assessed as transcriptional activity by measuring induction of CYP24A expression at 0.5 uM by RT-qPCR analysis relative to control; type: cell-based; details: filed as agonist
T1 sequence (whole entry): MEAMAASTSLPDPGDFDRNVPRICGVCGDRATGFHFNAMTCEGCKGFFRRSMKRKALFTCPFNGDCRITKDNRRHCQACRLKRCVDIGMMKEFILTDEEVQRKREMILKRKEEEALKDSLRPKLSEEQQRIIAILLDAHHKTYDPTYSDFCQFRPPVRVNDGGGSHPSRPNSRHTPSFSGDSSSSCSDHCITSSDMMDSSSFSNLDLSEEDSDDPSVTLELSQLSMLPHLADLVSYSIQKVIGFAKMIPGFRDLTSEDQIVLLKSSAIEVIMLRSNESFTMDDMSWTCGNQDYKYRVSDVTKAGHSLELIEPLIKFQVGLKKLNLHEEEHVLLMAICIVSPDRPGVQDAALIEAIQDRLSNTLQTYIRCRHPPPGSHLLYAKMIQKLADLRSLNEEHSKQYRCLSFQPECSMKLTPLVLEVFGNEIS

Mus musculus [2] = test: Anti-fibrotic effect in CCl4-induced hepatic fibrosis C57BL/6 mouse model assessed as decrease in inflammatory cell infiltration at 500 ug/kg, po five times a week for 2 weeks by Hematoxylin-Eosin (H&E) staining based assay; type: functional, organism-based; details: dose 500.0 µg/kg
Mus musculus [3] = test: Anti-fibrotic effect in improving CCl4-induced hepatic fibrosis C57BL/6 mouse model assessed as inhibition of Ctgf expression in liver at 500 ug/kg, po five times a week for 2 weeks by RT-qPCR analysis; type: functional, organism-based; details: dose 500.0 µg/kg
Mus musculus [4] = test: Anti-fibrotic effect in CCl4-induced hepatic fibrosis C57BL/6 mouse model assessed as reduction in hepatic fibrosis lesions at 500 ug/kg, po five times a week for 2 weeks by Masson's Trichrome staining based assay; type: functional, organism-based; details: dose 500.0 µg/kg
Mus musculus [5] = test: Anti-fibrotic effect in CCl4-induced hepatic fibrosis C57BL/6 mouse model assessed as inhibition of Timp-1 expression in liver at 500 ug/kg, po five times a week for 2 weeks by RT-qPCR analysis; type: functional, organism-based; details: dose 500.0 µg/kg
Mus musculus [6] = test: Anti-fibrotic effect in improving CCl4-induced hepatic fibrosis C57BL/6 mouse model assessed as inhibition of fibronectin (Fn) expression in liver at 500 ug/kg, po five times a week for 2 weeks by RT-qPCR analysis; type: functional, organism-based; details: dose 500.0 µg/kg
Mus musculus [7] = test: Anti-fibrotic effect in CCl4-induced hepatic fibrosis C57BL/6 mouse model assessed as inhibition of serum AST level at 500 ug/kg, po five times a week for 2 weeks; type: functional, organism-based; details: dose 500.0 µg/kg
Mus musculus [8] = test: Anti-fibrotic effect in bile duct ligation (BDL) surgery-induced hepatic fibrosis C57BL/6 mouse model assessed as inhibition of serum ALT level at 500 ug/kg, po five times a week for 2 weeks; type: functional, organism-based; details: dose 500.0 µg/kg
Mus musculus [9] = test: Anti-fibrotic effect in bile duct ligation (BDL) surgery-induced hepatic fibrosis C57BL/6 mouse model assessed as inhibition of collagen deposition in liver at 500 ug/kg, po five times a week for 2 weeks by Masson's Trichrome […] staining based assay; type: functional, organism-based; details: dose 500.0 µg/kg

Measured: Activity

OCc1ccc(/C=C/c2ccc(OCCCC(F)(F)F)cc2)cc1CO
active: all assays above
